Experiments:
U2OS cells = experiment: Immunoblot analysis of DNA damage and checkpoint markers in U2OS cells treated with UNC0379; format: cell-based, human
Method: For immunoblot analysis, cells washed with phosphate-buffered saline (PBS) were lysed in Laemmli buffer. After measuring protein quantity by Bradford, equal amounts of protein were resolved by SDS-PAGE, transferred to a nitrocellulose membrane and probed with one of the following antibodies: anti-SETD8 (1:1000, Cell Signaling Technology), anti-H4K20me1 (1:1000 cell signaling) anti-phospho-H2A.X-Ser139 (1:1000, millipore). Membranes were then incubated with the appropriate horseradish peroxidase (HRP)-conjugated secondary antibodies. The immunoreactive bands were detected by chemiluminescence.

MM cells = experiment: DNA repair foci (53BP1) immunofluorescence, combination with melphalan; conditions: sub-lethal dose of UNC0379 combined with melphalan, P<0.001
Description: At least 300 cells were counted for each treatment group.
After deposition on slides using a Cytospin centrifuge, cells were fixed with 4% PFA, permeabilized with 0.5% Triton in PBS and saturated with 5% bovine milk in PBS. […] Slides were washed and mounted with Vectashield and 1% DAPI. Images and fluorescence were captured with a ZEISS Axio Imager Z2 microscope (X63 objective) (company, town state), analyzed with Metafer (version3.6, company, town state) and ImageJ softwares. The number of 53BP1 and γH2AX foci was counted in at least 300 nuclei.

XG1 HMCL = experiment: Apoptosis induction, Annexin V APC staining by flow cytometry, XG1; format: cell-based, human; conditions: XG1, UNC0379 5 mM (so in the source)
Method: (§1) Apoptosis induction was analyzed with Annexin V APC staining by flow cytometry. The shown data is one representative experiment and mean values±SD of 3 separate experiments. Statistical analysis was done with a paired t-test.

XG7 HMCL = experiment: Apoptosis induction, Annexin V APC staining by flow cytometry, XG7; format: cell-based, human; conditions: XG7, UNC0379 5 mM (so in the source)
Method: as §1

non-myeloma cells = format: cell-based, human; conditions: 1, 2.5 and 5 μM, day 4, patient mononuclear cell cultures, n=8
Method: […]. At day 4 of culture, the viability and total cell counts were assessed and the percentage of CD138 viable plasma cells was determined by flow cytometry. Results are median values of the numbers of myeloma cells in the culture wells. The values were compared with a Wilcoxon test for pairs.
[…]. MMCs cytotoxicity was evaluated using anti-CD138-PE mAb (Immunotech, Marseille, France) as described^18,35. Results were analyzed using GraphPad Prism (http://www.graphpad.com/scientific-software/prism/).

With `COc1cc2nc(N3CCCC3)nc(NCCCCCN3CCCC3)c2cc1OC` [UNC0379] the P53 level (U2OS cells) was “stabilization of P53”, the “phosphorylation of CHK1 (DNA damage checkpoint activation)” value (U2OS cells) was “phosphorylation of CHK1” and the “γH2A.X (marker of DNA damage)” value (U2OS cells) was “increase in γH2A.X”. For the same compound, the “accumulation of DNA double strand breaks (53BP1 foci)” value (MM cells) was “significantly synergizes with melphalan”, the annexin-V positive cells (XG1 HMCL) was 87% and the annexin-V positive cells (XG7 HMCL) was 63%. For the same compound, the “toxicity on the non-myeloma cells” value (non-myeloma cells) was “without significant toxicity”.

Source: patent publication US20200330467A1, “METHOD AND PHARMACEUTICAL COMPOSITIONS FOR THE TREATMENT OF MULTIPLE MYELOMA” (priority 2016, published 2020)
